Experimental data taken from patent US4886805A, “Novel aminoalkylthio derivatives of triazolopyridine or triazoloquinoline, the processes for their preparation, and drugs, useful especially as analgesics, in which they are present” (Centre D'Activite Et De Recherches Pharmaceutique …, priority 1986, dated 1989).
Like-named read-outs stand apart in the source and are kept apart here.

System: pain reactions caused by phenylbenzoquinone
Assay: Siegmund test with phenylbenzoquinone (analgesic activity after oral administration)
Assay type: in vivo, male mice, CD1 strain (Charles River)
Conditions: Mus musculus, read-out: AD50 confidence limits
[1] = 50% active dose with confidence limits, oral (gastric intubation), 1 hour before phenylbenzoquinone i.p., twists and stretches counted 5th to 10th minute, mice

Protocol: This method makes it possible to assess the analgesic activity of molecules having both a peripheral and a central action.
Male mice of the CD1 strain (Charles River) and OF1 strain (Iffa Credo), weighing from 19 to 22 g, were used for the Siegmund test and the Eddy test respectively. The tests were carried out at an ambient temperature of 21°±2° C.
The products were suspended in an aqueous mixture of 1% gum arabic, 0.1% sodium chloride and 0.001% Tween 80.
One hour after administration of the product studied, 0.20 to 0.22 ml of a 0.02% aqueous-alcoholic solution of phenylbenzoquinone is administered to the mice intraperitoneally.
The number of pain reactions (twists and stretches) is counted from the 5th to the 10th minute.
The products of the examples studied were administered to groups of 6 to 12 mice by gastric intubation (0.5 ml/20 g), one hour before phenylbenzoquinone, according to the following dosage schedule:
The percentage inhibition of pain manifestations was calculated from the mean numbers of twists per group.
The 50% active doses and their confidence limits were determined from the linear regression carried out on the parameters measured.

SMILES | ED50 [1] [mg/kg] | ED50 (po) [mg/kg]
Cl.Cl.Fc1ccccc1N1CCN(CCSc2nnc3ccccn23)CC1 [Example 41, 3-[2-(4-(2-Fluorophenyl)piperazin-1-yl)ethylmercapto]-1,2,4-triazolo(4,3-a)pyridine dihydrochloride] | 3.19 | 
FC(F)(F)c1cccc(N2CCN(CCSc3nnc4c(C(F)(F)F)cccn34)CC2)c1.O=C(O)/C=C\C(=O)O [Example 24, 3-[2-(4-(3-Trifluoromethylphenyl)piperazin-1-yl)ethylmercapto]-8-trifluoromethyl-1,2,4-triazolo(4,3-a)pyridine maleate] | 4.53 | 
Cl.Cl.Fc1ccc(N2CCNCC2)c(F)c1 [Example 1, 4-(2,4-Difluorophenyl)piperazine dihydrochloride] |  | 2.16
Cc1cc2nnc(SCCN3CCN(c4ccc(F)cc4F)CC3)n2c2ccccc12 [Example 62, 1-[2-(4-(2,4-Difluorophenyl)piperazin-1-yl)ethylmercapto]-5-methyl-s-triazolo(4,3-a)quinoline] | 11 | 
Fc1ccc(N2CCN(CCCSc3nnc4c(C(F)(F)F)cccn34)CC2)c(F)c1 [Example 32, 3-[3-(4-(2,4-Difluorophenyl)piperazin-1-yl)propylmercapto]-8-trifluoromethyl-1,2,4-triazolo(4,3-a)pyridine] | 12.6 | 
Clc1cccc(N2CCN(CCSc3nnc4ccccn34)CC2)c1 [Example 49, 3-[2-(4-(3-Chlorophenyl)piperazin-1-yl)ethylmercapto]-1,2,4-triazolo(4,3-a)pyridine] | 2.45 | 
Fc1ccc(N2CCN(CCSc3nnc4c(C(F)(F)F)cccn34)CC2)c(F)c1 [Example 28, 3-[2-(4-(2,4-Difluorophenyl)piperazin-1-yl)ethylmercapto]-8-trifluoromethyl-1,2,4-triazolo(4,3-a)pyridine] | 22.4 | 
Fc1ccc(N2CCN(CCCSc3nnc4ccccn34)CC2)c(F)c1 [Example 43, 3-[3-(4-(2,4-Difluorophenyl)piperazin-1-yl)propylmercapto]-1,2,4-triazolo(4,3-a)pyridine] | 13.9 | 
FC(F)(F)c1cccc(N2CCN(CCCSc3nnc4ccc5ccccc5n34)CC2)c1 [Example 57, 1-[3-(4-(3-Trifluoromethylphenyl)piperazin1-yl)propylmercapto]-s-triazolo(4,3-a)quinoline] | 8.56 | 
Clc1ccc(C2=CCN(CCSc3nnc4ccccn34)CC2)cc1 [Example 48, 3-[2-(4-(4-Chlorophenyl)-1,2,3,6-tetrahydropyridin-1-yl)ethylmercapto]-1,2,4-triazolo(4,3-a)pyridine] |  | 16.1
Fc1ccc(C2=CCN(CCSc3nnc4ccccn34)CC2)cc1 [Example 45, 3-[2-(4-(4-Fluorophenyl)-1,2,3,6-tetrahydropyridin-1-yl)ethylmercapto]-1,2,4-triazolo(4,3-a)pyridine] |  | 33
Cc1cc2ccccc2n2c(SCCCN3CCN(c4cccc(C(F)(F)F)c4)CC3)nnc12 [Example 59, 1-[3-(4-(3-Trifluoromethylphenyl)piperazin-1-yl)propylmercapto]-4-methyl-s-triazolo(4,3-a)quinoline] | 14.1 | 
Cc1ccc2nnc(SCCN3CCN(c4cccc(C(F)(F)F)c4)CC3)n2c1.Cl.Cl [Example 31, 3-[2-(4-(3-Trifluoromethylphenyl)piperazin-1-yl)ethylmercapto]-6-methyl-1,2,4-triazolo(4,3-a)pyridine dihydrochloride] | 3.6 | 
Fc1ccc(N2CCN(CCSc3nnc4ccccn34)CC2)c(F)c1 [Example 44, 3-[2-(4-(2,4-Difluorophenyl)piperazin-1-yl)ethylmercapto]-1,2,4-triazolo(4,3-a)pyridine] | 11 | 
Cc1cc2ccccc2n2c(SCCN3CCN(c4cccc(C(F)(F)F)c4)CC3)nnc12 [Example 63, 1-[2-(4-(3-Trifluoromethylphenyl)piperazin-1-yl)ethylmercapto]-4-methyl-s-triazolo(4,3-a)quinoline] | 8.17 | 
Cc1cc2ccccc2n2c(SCCCN3CCN(c4ccc(F)cc4F)CC3)nnc12 [Example 66, 1-[3-(4-(2,4-Difluorophenyl)piperazin-1-yl)propylmercapto]-4-methyl-s-triazolo(4,3-a)quinoline] | 17.9 | 
FC(F)(F)c1cccc(N2CCN(CCSc3nnc4ccccn34)CC2)c1.O=C(O)/C=C\C(=O)O [Example 33, 3-[2-(4-(3-Trifluoromethylphenyl)piperazin-1-yl)ethylmercapto]-1,2,4-triazolo(4,3-a)pyridine maleate] | 1.71 | 
